Reference: patent publication US20230266302A1, “SYNTHESIS AND USE OF N-BENZYL SULFONAMIDES” (THE UNIVERSITY OF TULSA, priority 2020, published 2023)

Assays:
Experiment in all cases: ATP level assay (CellTiter-Glo), percent of control
Assay type in all cases: cell-based
[1] = tested on: BxPC3 (pancreatic cancer); conditions: two hour incubation; for activity at 100 µM: Homo sapiens, BXPC-3, 2 h, compound alone, control DMSO, read-out: POC (percent of control) BxPC3
[2] = tested on: H293 (kidney cancer); conditions: two hour incubation; for activity at 100 µM: 2 h, compound alone, control DMSO, read-out: POC (percent of control) H293
[3] = tested on: HDF (normal cells); conditions: two hour incubation; for activity at 100 µM: 2 h, compound alone, control DMSO, read-out: POC (percent of control) HDF
[4] = tested on: HeLa (cervical cancer); conditions: two hour incubation; for activity at 100 µM: Homo sapiens, HeLa, 2 h, compound alone, control DMSO, read-out: POC (percent of control) HeLa
[5] = tested on: MCF10A (non-cancerous breast); conditions: two hour incubation; for activity at 100 µM: Homo sapiens, MCF-10A, 2 h, compound alone, control DMSO, read-out: POC (percent of control) MCF10A
[6] = tested on: MCF7 (breast cancer); conditions: two hour incubation; for activity at 100 µM: Homo sapiens, MCF7, 2 h, compound alone, control DMSO, read-out: POC (percent of control) MCF7
[7] = tested on: MDA-MB (breast cancer); conditions: two hour incubation; for activity at 100 µM: 2 h, compound alone, control DMSO, read-out: POC (percent of control) MDA-MB
[8] = tested on: NCI-H196 (lung cancer); conditions: two hour incubation; for activity at 100 µM: NCI-H196, 2 h, compound alone, control DMSO, read-out: POC (percent of control) NCI-H196
[9] = tested on: PC3 (prostate cancer); conditions: two hour incubation; for activity at 100 µM: 2 h, compound alone, control DMSO, read-out: POC (percent of control) PC3
[10] = tested on: SkBr3 (breast cancer); conditions: two hour incubation; for activity at 100 µM: Homo sapiens, SK-BR-3, 2 h, compound alone, control DMSO, read-out: POC (percent of control) SkBr3
[11] = tested on: T47D (breast cancer); conditions: two hour incubation; for activity at 100 µM: Homo sapiens, T47D, 2 h, compound alone, control DMSO, read-out: POC (percent of control) T47D
[12] = compound 100 uM + rotenone (approximately 1.25 μM)
[13] = compound 100 uM + 2DG (about 10-20 mM)

Compound	activity at 100 µM [1] [%]	POC (percent of control) BxPC3 [1, 12]	activity at 100 µM [2] [%]	POC (percent of control) H293 [2, 13]	POC (percent of control) H293 [2, 12]	activity at 100 µM [3] [%]	POC (percent of control) HDF [3, 13]	POC (percent of control) HDF [3, 12]	activity at 100 µM [4] [%]	POC (percent of control) HeLa [4, 13]	POC (percent of control) HeLa [4, 12]	activity at 100 µM [5] [%]	POC (percent of control) MCF10A [5, 13]	POC (percent of control) MCF10A [5, 12]	activity at 100 µM [6] [%]	POC (percent of control) MCF7 [6, 13]	POC (percent of control) MCF7 [6, 12]	activity at 100 µM [7] [%]	POC (percent of control) MDA-MB [7, 13]	POC (percent of control) MDA-MB [7, 12]	other results
Cc1ccc(S(=O)(=O)NCc2c[nH]c3ccccc23)cc1 [Compound 1, N-[(1H-indol-3-yl)methyl]-4-methylbenzenesulfonamide]	97.1	86.6% of control	92.8	48.2% of control	69% of control	98.5	85% of control	107.7% of control	95	66.3% of control	78.7% of control	73.3	86.7% of control	69% of control	103	86.8% of control	79.6% of control	78.1	62% of control	80.5% of control	activity at 100 µM [8]: 90.8%; POC (percent of control) NCI-H196 [8, 13]: 68.8% of control; POC (percent of control) NCI-H196 [8, 12]: 83.2% of control; activity at 100 µM [9]: 91.7%; POC (percent of control) PC3 [9, 13]: 57.3% of control; POC (percent of control) PC3 [9, 12]: 72.6% of control; activity at 100 µM [10]: 97.7%; POC (percent of control) SkBr3 [10, 13]: 72.9% of control; POC (percent of control) SkBr3 [10, 12]: 91.2% of control; activity at 100 µM [11]: 53.2%; POC (percent of control) T47D [11, 13]: 43.2% of control; POC (percent of control) T47D [11, 12]: 76.6% of control
O=S(=O)(NCc1cncnc1)c1ccccc1 [Compound 15, N-(pyrimidin-5-ylmethyl)benzenesulfonamide]	98.8	88.9% of control	99.8	74.7% of control	84.4% of control	89.2	100.2% of control	91.1% of control	103	113.9% of control	102.2% of control	105	122% of control	98.4% of control	148	103.4% of control	96.4% of control	108	91.2% of control	90.8% of control	POC (percent of control) BxPC3 [1, 13]: 70.8% of control; activity at 100 µM [8]: 92.3%; POC (percent of control) NCI-H196 [8, 13]: 115.4% of control; POC (percent of control) NCI-H196 [8, 12]: 104.5% of control; activity at 100 µM [9]: 109%; POC (percent of control) PC3 [9, 13]: 117.6% of control; POC (percent of control) PC3 [9, 12]: 106.4% of control; activity at 100 µM [10]: 117%; POC (percent of control) SkBr3 [10, 13]: 123.3% of control; POC (percent of control) SkBr3 [10, 12]: 93% of control; activity at 100 µM [11]: 89.6%; POC (percent of control) T47D [11, 13]: 82.5% of control; POC (percent of control) T47D [11, 12]: 109.4% of control
